Test [1] concerns SB.msgc-1. The test can be described thus: area under the dose-response curve of % viability (trapezoidal, 11 doses) (% viability x log10 concentration); higher = less cytotoxic. The settings on record: SB.msgc-1 (sporadic gastric cancer). A digest of the protocol:
(§1)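 Each entry is viability relative to DMSO, given either at the highest concentration tested or as a trapezoidal area under the curve. Gastric cancer cells from hereditary or sporadic patients (500 cells in 5 μL medium per 1536 well) received compound in DMSO at 11 threefold-diluted concentrations, 23 nL by pintool. Luminescence from CellTiter-Glo was read after 48 h.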

For test [2], the system named is SB.mhdgc-1. The test is described as above. The settings on record: SB.mhdgc-1 (hereditary c.1380delA CDH1 gastric cancer). A digest of the protocol: as §1
For test [3], the system named is SB.msgc-1. As to the kind of experiment: viability at highest tested concentration (MAXR) relative to DMSO; higher = less cytotoxic. To be noted: SB.msgc-1 (sporadic gastric cancer). A digest of the protocol: as §1
Test [4] relates to SB.mhdgc-1. Described as above. To be noted: SB.mhdgc-1 (hereditary c.1380delA CDH1 gastric cancer). A digest of the protocol:
as §1

The structures appear in SMILES notation.

What is called viability is a read-out of living cells in per cent, often relative to untreated cells. Turning to `COc1cc(C(=O)N2CCC(N3CCN(C)CC3)CC2)ccc1Nc1ncc2c(n1)N(C)c1ccccc1C(=O)N2C` [LRRK2-IN-1] (top concentration 46.0829 µM), the “area under the dose-response curve” value in test [1] was found to be 423; in test [2] it was 483. Besides, the viability in test [3] amounted to 13.7%; in test [4], 35.1%.
Regarding `Fc1ccc(Cl)cc1-c1nc(Nc2ccncc2)c2nccnc2n1` [SD-208] (top concentration 46.0829 µM), the entries for the “area under the dose-response curve” value in test [1] and in test [2] were 489 and 467, respectively. Also, the viability is 66.8% in test [3] and 48.8% in test [4].
Consider `NC1CC1c1ccccc1` (configuration not stated) [Tranylcypromine] (top concentration 46.0829 µM), for which the “area under the dose-response curve” value in test [1] came to 554; in test [2] it was 551. The viability in test [3] worked out at 109%; in test [4], 106%.
For `CCc1ccc(/C=C2/SC(=S)NC2=O)cc1` (top concentration 46.0829 µM), the “area under the dose-response curve” value is 410 in test [1] and 400 in test [2]. The viability in test [3] was 55.9%; in test [4] it was 87.1%.
The corresponding values for `Cc1ccc([C@@H]2O[C@H](CO)[C@@H](O)[C@H](O)[C@H]2O)cc1Cc1ccc(-c2ccc(F)cc2)s1` [Canagliflozin] (top concentration 46.0829 µM) are 575, 559, 84.1% and 87.6%.
The corresponding values for `CC1=C(C)C2=C(S1)[N]3C(=NN=C3[C@H](CC(=O)OC(C)(C)C)/N=C2/C4=CC=C(Cl)C=C4)C` [JQ1] (top concentration 46.0829 µM) are 342, 450, 3.47% and 3.31%.
With `O=C1CCCC(=O)C1C(=O)c1ccc(C(F)(F)F)cc1[N+](=O)[O-]` [Nitisinone] (top concentration 46.0829 µM), the “area under the dose-response curve” value came to 592 in test [1] and 556 in test [2]. In addition, the viability was 89.1% in test [3] and 111% in test [4].
For `COc1ccc2cc([C@H](C)C(=O)O)ccc2c1` [Naproxen sodium] (top concentration 46.0829 µM), the “area under the dose-response curve” value in test [1] was 587; in test [2], 563. Also, the results for the viability in test [3] and in test [4] were 113% and 107%, respectively.
Take `COc1cc2c(cc1OC)[C@@H]1Cc3ccc(OC)c(OC)c3CN1CC2` [Rotundine] (top concentration 46.0829 µM): the “area under the dose-response curve” value in test [1] worked out at 551; in test [2] it was 448. The viability came to 72.6% in test [3] and 49.6% in test [4].
`Fc1ccc([C@@H]2CCNC[C@H]2COc2ccc3c(c2)OCO3)cc1` [Paroxetine] (top concentration 46.0829 µM): the “area under the dose-response curve” value is 483 in test [1] and 503 in test [2]. The viability in test [3] came to 44.6%; in test [4], 24.9%.
Turning to `COc1cc2nc(N3CCCN(C)CC3)nc(NC3CCN(Cc4ccccc4)CC3)c2cc1OC` (top concentration 46.0829 µM), the results for the “area under the dose-response curve” value in test [1] and in test [2] were 450 and 420, respectively. Also, the viability in test [3] worked out at 40.8%; in test [4], 5.5%.
As for `C[C@](O)(COc1ccc(C#N)cc1)C(=O)Nc1ccc(C#N)c(C(F)(F)F)c1` [Ostarine] (top concentration 46.0829 µM), the “area under the dose-response curve” value in test [1] came to 301; in test [2], 469. Further, the viability turned out to be 21% in test [3] and 66.9% in test [4].
On to `CC(C)(C)C(=O)Oc1ccc2c(c1)nc(NC(=O)c1cccc([N+](=O)[O-])c1)n2CCCO` (top concentration 46.0829 µM), for which the “area under the dose-response curve” value in test [1] is 519; in test [2], 491. The results for the viability in test [3] and in test [4] were 66.2% and 53.7%, respectively.
With `N[S+](=O)([O-])c1ccc(Nc2nc(OCC3CCCCC3)c3[nH]cnc3n2)cc1` [NU-6102] (top concentration 46.0829 µM), the “area under the dose-response curve” value in test [1] was 537; in test [2] it was 496. Besides, the figures for the viability in test [3] and in test [4] were 69.2% and 42.7%, respectively.
Turning to `O=P1(NCCCl)OCCCN1CCCl` (configuration not stated) [Ifomide] (top concentration 46.0829 µM), the “area under the dose-response curve” value in test [1] amounted to 427; in test [2] it was 350. Moreover, the viability in test [3] was 39%; in test [4], 48.3%.
The corresponding values for `C[C@]12CC[C@@H]3c4ccc(O)cc4CC[C@H]3[C@@H]1[C@@H](O)[C@@H](O)[C@@H]2O` [Estetrol] (top concentration 46.0829 µM) are 549, 439, 78.6% and 7.6%.
Turning to `CC(C)NCC(O)c1ccc(NS(C)(=O)=O)cc1` (configuration not stated) [Sotalol] (top concentration 46.0829 µM), the entries for the “area under the dose-response curve” value in test [1] and in test [2] were 512 and 485, respectively. Also, the viability in test [3] stood at 40.9%; in test [4], 35.2%.
As for `N=C(N)NC(=N)N1CCOCC1` [Moroxydine] (top concentration 46.0829 µM), the results for the “area under the dose-response curve” value in test [1] and in test [2] were 479 and 506, respectively. The viability in test [3] stood at 44.6%; in test [4], 52.5%.
The like results for `CN(C)/N=N/c1nc[nH]c1C(N)=O` [Dacarbazine] (top concentration 46.0829 µM) were, in that order, 541, 563, 91.1% and 113%.
Take `Clc1cccc(-n2nnnc2NCc2ccccc2Oc2ccccn2)c1Cl` (top concentration 46.0829 µM): the “area under the dose-response curve” value in test [1] was found to be 536; in test [2] it was 537. Also, the results for the viability in test [3] and in test [4] were 72.4% and 68.9%, respectively.
The like results for `ClC1=CC=C(C=C1)C(C#N)C2=C(Cl)C=C(C=C2Cl)N3\N=C/C(=O)NC3=O` (configuration not stated) [Diclazuril] (top concentration 46.0829 µM) were, in that order, 511, 538, 61% and 8.68%.
With `O=C1c2c(O)cccc2[C@H]([C@@H]2O[C@H](CO)[C@@H](O)[C@H](O)[C@H]2O)c2cc(CO)cc(O)c21` [Aloin] (top concentration 46.0829 µM), the entries for the “area under the dose-response curve” value in test [1] and in test [2] were 544 and 457, respectively. For the same molecule, the viability in test [3] came to 76.1%; in test [4] it was 53.8%.
Consider `CCn1c(-c2nonc2N)nc2cncc(CNC3CCNCC3)c21` (top concentration 46.0829 µM), for which the “area under the dose-response curve” value in test [1] amounted to 534; in test [2], 484. Also, the values for the viability in test [3] and in test [4] were 93.4% and 65.3%, respectively.

The values above are taken from the supplement of paper PMC5412046.
